Consider seven compounds from patent publication US3956291A, “7-Thioacetamido cephalosporanic acid derivatives” (American Home Products Corporation, priority 1974, dated 1976).

What all share (assay): agar serial dilution test, minimum inhibitory concentration
Common to all, as to type: cell-based

For assay [1], the system named is klebsiella pneumoniae. The text has this: (§1) The compounds of this invention are useful for the treatment of bacterial infections amenable to treatment by cephalosporins. […] In accordance with the results obtained with the antibacterial compounds of this invention, their usefulness is established in the fields of comparative pharmacology and microbiology for the purpose of inhibiting the growth of undesirable bacterial colonies. […]

Assay [2] concerns Staphylococcus aureus. To be noted: for MIC: Staphylococcus aureus.
From the text: as §1

Assay [3] relates to proteus vulgaris.
From the text: as §1

Assay [4] relates to bordetella brochiseptica. Conditions: BO BR strain 4617.
From the text: as §1

The test system of assay [5] is bacillus subtilis. To be noted: BA SU strain 6633; for MIC: Bacillus subtilis.
From the text: as §1

Assay [6] has as its system salmonella paratyphi. Conditions: Salmonella enterica, read-out: Minimum Inhibitory Concentration.
From the text: as §1

The test system of assay [7] is neisseria catarrhalis.
From the text: as §1

The subject of assay [8] is escherichia coli.
From the text: as §1

The mark [9] stands for this setting: KL PN strain 10031, read-out: Minimum Inhibitory Concentration.
The mark [10] stands for this setting: read-out: Minimum Inhibitory Concentration.
Setting [11] is: PR VU strain 6896, read-out: Minimum Inhibitory Concentration.
The mark [12] stands for this setting: NE CA strain 8193, read-out: Minimum Inhibitory Concentration.

In brackets after ≈: the same amount, converted by molar mass. Where two headings read alike, the source gives them in different places.

Turning to `CCOC(=O)CSC(SCC(=O)N[C@@H]1C(=O)N2C(C(=O)O)=C(COC(C)=O)CS[C@H]12)=C(C#N)C#N` [Example 1, 7-(2[2,2-Dicyano-1-(ethoxycarbonylmethylthio)ethenylthio]acetamido)cephalosporanic acid], the MIC was 250 µg/mL (≈ 462 µM) in assay [1] (setting [9]); 3.9 µg/mL (≈ 7.21 µM) in assay [2] (ST AU strain 53-180); 0.976 µg/mL (≈ 1.81 µM) in assay [2] (ST AU strain 6538P); 7.81 µg/mL (≈ 14.4 µM) in assay [2] (ST AU strain CHP); 0.976 µg/mL (≈ 1.81 µM) in assay [2] (ST AU strain Smith); 125 µg/mL (≈ 231 µM) in assay [3] (setting [10]). Besides, the MIC was 250 µg/mL (≈ 462 µM) in assay [4]; 0.244 µg/mL (≈ 0.451 µM) in assay [5]; 125 µg/mL (≈ 231 µM) in assay [6]; 125 µg/mL (≈ 231 µM) in assay [7] (setting [10]); 250 µg/mL (≈ 462 µM) in assay [8] (ES CO strain 9637).
In the case of `COC(=O)CSC(SCC(=O)N[C@@H]1C(=O)N2C(C(=O)O)=C(COC(C)=O)CS[C@H]12)=C(C#N)C(N)=O` [Example 3, 7-(2-[2-Carbamoyl-1-(methoxycarbonylmethylthio)-2-cyanoethenylthio]acetamido) cephalosporanic acid], the MIC was 125 µg/mL (≈ 230 µM) in assay [1] (setting [9]); 1.95 µg/mL (≈ 3.58 µM) in assay [2] (ST AU strain 53-180); 0.488 µg/mL (≈ 0.896 µM) in assay [2] (ST AU strain 6538P); 3.9 µg/mL (≈ 7.16 µM) in assay [2] (ST AU strain CHP); 0.488 µg/mL (≈ 0.896 µM) in assay [2] (ST AU strain Smith); 62.5 µg/mL (≈ 115 µM) in assay [3] (setting [11]). Also, the MIC in assay [5] turned out to be 0.122 µg/mL (≈ 0.224 µM); in assay [6], 31.3 µg/mL (≈ 57.5 µM); in assay [7] (setting [12]) it was 7.81 µg/mL (≈ 14.3 µM); in assay [8] (ES CO strain 9637) it was 62.5 µg/mL (≈ 115 µM).
`CCOC(=O)CSC(SCC(=O)N[C@@H]1C(=O)N2C(C(=O)O)=C(COC(C)=O)CS[C@H]12)=C(C#N)C(N)=O` [Example 4]: the MIC was found to be 125 µg/mL (≈ 224 µM) in assay [1] (setting [9]); 1.95 µg/mL (≈ 3.49 µM) in assay [2] (ST AU strain 53-180); 0.488 µg/mL (≈ 0.874 µM) in assay [2] (ST AU strain 6538P); 3.9 µg/mL (≈ 6.98 µM) in assay [2] (ST AU strain CHP); 0.488 µg/mL (≈ 0.874 µM) in assay [2] (ST AU strain Smith); 125 µg/mL (≈ 224 µM) in assay [3] (setting [11]). Also, the MIC is 0.061 µg/mL (≈ 0.109 µM) in assay [5], 62.5 µg/mL (≈ 112 µM) in assay [6], 3.9 µg/mL (≈ 6.98 µM) in assay [7] (setting [12]) and 250 µg/mL (≈ 448 µM) in assay [8] (ES CO strain 9637).
On to `CSC(=NC#N)SCC(=O)N[C@@H]1C(=O)N2C(C(=O)O)=C(COC(C)=O)CS[C@H]12` [Example 5], for which the MIC in assay [1] (setting [9]) was found to be 125 µg/mL (≈ 281 µM); in assay [2] (ST AU (ditto mark) strain 9637 (so in the source)), 125 µg/mL (≈ 281 µM); in assay [2] (ST AU strain 53-180), 3.9 µg/mL (≈ 8.77 µM); in assay [2] (ST AU strain 6538P) it was 1.95 µg/mL (≈ 4.39 µM); in assay [2] (ST AU strain CHP), 7.81 µg/mL (≈ 17.6 µM); in assay [2] (ST AU strain Smith), 0.976 µg/mL (≈ 2.2 µM). For the same compound, the MIC in assay [3] (setting [11]) came out at 62.5 µg/mL (≈ 141 µM); in assay [4] it was 125 µg/mL (≈ 281 µM); in assay [5] it was 0.976 µg/mL (≈ 2.2 µM); in assay [6], 31.3 µg/mL (≈ 70.4 µM); in assay [7] (setting [12]), 250 µg/mL (≈ 562 µM); in assay [8] (ES CO strain 920) it was 250 µg/mL (≈ 562 µM).
In the case of `CC(=O)OCC1=C(C(=O)O)N2C(=O)C(NC(=O)CSC(SCC#N)=C(C#N)S(C)(=O)=O)C2SC1` (stereo not shown) [Example 11, 7-[2-(2-Cyano-1-cyanomethylthio-2-methylsulfonylethenylthio)acetamido]cephalosporanic acid], the “Minimum Inhibitory Concentration” value in assay [2] (ST AU strain 6538P) is 250 micrograms per milliliter; in assay [2] (ST AU strain Smith), 250 micrograms per milliliter; in assay [5] it was 15.6 micrograms per milliliter.
On to `CC(=O)OCC1=C(C(=O)O)N2C(=O)[C@@H](NC(=O)CSC(=NC#N)SCC(=O)O)[C@H]2SC1` [Example 15, 7-[2-[(cyanoimino)(2-hydroxy-2-oxoethylthio)methylthio]acetamido]cephalosporanic acid], for which the MIC was found to be 250 µg/mL (≈ 512 µM) in assay [1] (setting [9]); 15.6 µg/mL (≈ 31.9 µM) in assay [2] (ST AU strain 6538P); 62.5 µg/mL (≈ 128 µM) in assay [2] (ST AU strain CHP); 7.81 µg/mL (≈ 16 µM) in assay [2] (ST AU strain Smith); 125 µg/mL (≈ 256 µM) in assay [3] (setting [10]); 1.95 µg/mL (≈ 3.99 µM) in assay [5]. Further, in assay [6], the MIC was found to be 125 µg/mL (≈ 256 µM).
On to `C#CCSC(=NC#N)SCC(=O)N[C@@H]1C(=O)N2C(C(=O)O)=C(COC(C)=O)CS[C@H]12` [Example 17, 7-[2-[(cyanoimino) (2-propynylthio)methylthio]acetamido]cephalosporanic acid], for which the MIC stood at 7.81 µg/mL (≈ 16.7 µM) in assay [1] (setting [10]); 3.9 µg/mL (≈ 8.32 µM) in assay [2] (ST AU strain 53-180); 0.488 µg/mL (≈ 1.04 µM) in assay [2] (ST AU strain 6538P); 3.9 µg/mL (≈ 8.32 µM) in assay [2] (ST AU strain CHP); 0.488 µg/mL (≈ 1.04 µM) in assay [2] (ST AU strain Smith); 62.5 µg/mL (≈ 133 µM) in assay [3] (setting [11]). In addition, the MIC is 0.122 µg/mL (≈ 0.26 µM) in assay [5]; 7.81 µg/mL (≈ 16.7 µM) in assay [6]; 125 µg/mL (≈ 267 µM) in assay [7] (setting [12]); 62.5 µg/mL (≈ 133 µM) in assay [8] (ES CO strain 920); 31.3 µg/mL (≈ 66.8 µM) in assay [8] (ES CO strain 9637).
